Results taken from patent US12263180B2, “Method for treatment of COVID-19-associated conditions” (priority 2020, dated 2025).
In brackets after ≈: the same amount, converted by molar mass. Read-outs that look alike come from different tables or passages of the source.

Tests used:
MUC1 = details: mouse model of ALI; cited from earlier work
[1] = water solubility in aqueous buffer under physiological conditions
LPS-induced ALI = details: mice; cited from earlier work
COVID-19 [2] = assay: Phase 3 placebo-controlled study in hospitalized COVID-19 patients; type: in vivo
[3] = in vivo
[4] = human, in vivo; cited from earlier work
IL-6 = details: RA patients, within the first week of treatment; cited from earlier work
[5] = test system: chronic immune thrombocytopenia (ITP); details: ITP patients, two randomized studies; cited from earlier work
human neutrophils = details: in vitro; cited from earlier work
physchem = details: aqueous buffer
[6] = test system: SARS-CoV-2 as well as other human and bat coronaviruses; details: human airway epithelial cells; cited from earlier work
[7] = test system: SARS-CoV-2 as well as other human and bat coronaviruses; details: mice; cited from earlier work
COVID-19 [8] = details: critically ill COVID-19 patients, compared to standard care; cited from earlier work
human ACE2 = human ACE2 (Homo sapiens, UniProt Q9BYF1); details: cited from earlier work
Sequence of human ACE2 (Q9BYF1 18-805): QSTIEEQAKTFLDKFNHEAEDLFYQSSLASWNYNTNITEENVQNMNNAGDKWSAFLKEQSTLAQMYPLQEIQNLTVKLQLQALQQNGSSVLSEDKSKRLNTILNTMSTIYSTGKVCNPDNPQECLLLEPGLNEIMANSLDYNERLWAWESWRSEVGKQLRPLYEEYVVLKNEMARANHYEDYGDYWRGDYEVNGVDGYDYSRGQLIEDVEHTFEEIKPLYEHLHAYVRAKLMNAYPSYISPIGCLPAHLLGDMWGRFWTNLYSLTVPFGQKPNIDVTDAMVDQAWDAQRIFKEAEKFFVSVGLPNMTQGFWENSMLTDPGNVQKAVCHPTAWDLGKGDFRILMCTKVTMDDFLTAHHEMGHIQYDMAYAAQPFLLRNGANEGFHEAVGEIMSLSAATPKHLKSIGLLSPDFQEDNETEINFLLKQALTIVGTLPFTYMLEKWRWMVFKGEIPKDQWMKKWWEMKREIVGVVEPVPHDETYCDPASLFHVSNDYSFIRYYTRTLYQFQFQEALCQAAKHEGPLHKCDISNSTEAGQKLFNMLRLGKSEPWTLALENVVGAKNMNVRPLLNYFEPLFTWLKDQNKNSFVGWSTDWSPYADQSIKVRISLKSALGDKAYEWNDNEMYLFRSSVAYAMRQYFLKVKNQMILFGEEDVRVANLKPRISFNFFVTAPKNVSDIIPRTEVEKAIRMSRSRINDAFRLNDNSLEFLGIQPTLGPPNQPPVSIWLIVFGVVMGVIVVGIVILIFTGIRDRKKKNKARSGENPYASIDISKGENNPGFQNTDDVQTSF

In the case of `COc1cc(Nc2ncc(F)c(Nc3ccc4c(n3)NC(=O)C(C)(C)O4)n2)cc(OC)c1OC` [Compound 1, N4-(2,2-Dimethyl-3-oxo-4H-5-pyrid[1,4]oxazin-6-yl)-5-fluoro-N2-(3,4,5-trimethoxyphenyl)-2,4-pyrimidinediamine], the MUC1 (MUC1) is given as “reduced MUC1”, the solubility [1] is given as 1 to 2 µg/mL (≈ 2.13 to 4.25 µM) and the “protection in LPS-induced ALI” value (LPS-induced ALI) is given as “protective”.
In the case of `COc1cc(Nc2ncc(F)c(Nc3ccc4c(n3)N(COP(=O)(O)O)C(=O)C(C)(C)O4)n2)cc(OC)c1OC` [Compound 4], the “occurrence of several severe symptoms of COVID-19 (AKI, kidney malfunction, acute lung injury, thrombosis, coagulopathy)” value (COVID-19 [2]; vs placebo) is reported as “significantly reduced”, the “percentage of COVID-19 infected patients that develop severe disease that requires intensive care” value (COVID-19 [2]; vs placebo) is reported as “significantly reduce” and the “percentage of patients developing severe or critical disease” value (COVID-19 [2]; within 29 days of first dose, vs placebo) is reported as “significantly smaller percentage”. For the same molecule, the “percentage of patients that develop ARDS” value (COVID-19 [2]; within patients requiring intensive care) was “significantly reduce”, the “number of patients that die” value (COVID-19 [2]; within patients that develop ARDS) was “significantly reduce” and the “oral bioavailability when formulated with progroup -CH2-O-P(O)(OH)2” value [3] was “increased dramatically”. For the same molecule, the safety profile [4] was “manageable safety profile”, the “plasma levels of IL-6” value (IL-6) was “reduce plasma levels of IL-6” and the bleeding episodes [5] was “decreased bleeding episodes”. For the same molecule, the platelet counts [5] was “increased platelet counts”, the NETosis (human neutrophils) was “block NETosis” and the solubility (physchem) was > 5000 µg/mL.
In the case of `O=c1nc(NO)ccn1[C@@H]1O[C@H](CO)[C@@H](O)[C@H]1O` [N4-hydroxycytidine], the inhibition of coronaviruses [6] is given as “inhibit SARS-CoV-2 as well as other human and bat coronaviruses” and the inhibition of coronaviruses [7] is given as “inhibit SARS-CoV-2 as well as other human and bat coronaviruses”.
In the case of `C[C@]12CCC(=O)C=C1CC[C@@H]1[C@@H]2[C@@H](O)C[C@@]2(C)[C@H]1CC[C@]2(O)C(=O)CO` [hydrocortisone, Hydrocortisone], the mortality rate (COVID-19 [8]) is listed as “effective in reducing mortality rate”.
In the case of `N[C@@H](CCN[C@@H](CCN1CC[C@H]1C(=O)O)C(=O)O)C(=O)O` [nicotianamine], the IC50 (human ACE2) is listed as 84 nM.
